Assays:
TLR7 [1] = biological target: T1, TLR7 (Mus musculus, UniProt P58681); experiment: IL-6 release in mouse BMDCs (ELISA); assay type: cell-based
T1 construct: endogenous in cells; host or cells: mouse bone marrow-derived dendritic cells (BMDCs)
T1 sequence (P58681 27-1050): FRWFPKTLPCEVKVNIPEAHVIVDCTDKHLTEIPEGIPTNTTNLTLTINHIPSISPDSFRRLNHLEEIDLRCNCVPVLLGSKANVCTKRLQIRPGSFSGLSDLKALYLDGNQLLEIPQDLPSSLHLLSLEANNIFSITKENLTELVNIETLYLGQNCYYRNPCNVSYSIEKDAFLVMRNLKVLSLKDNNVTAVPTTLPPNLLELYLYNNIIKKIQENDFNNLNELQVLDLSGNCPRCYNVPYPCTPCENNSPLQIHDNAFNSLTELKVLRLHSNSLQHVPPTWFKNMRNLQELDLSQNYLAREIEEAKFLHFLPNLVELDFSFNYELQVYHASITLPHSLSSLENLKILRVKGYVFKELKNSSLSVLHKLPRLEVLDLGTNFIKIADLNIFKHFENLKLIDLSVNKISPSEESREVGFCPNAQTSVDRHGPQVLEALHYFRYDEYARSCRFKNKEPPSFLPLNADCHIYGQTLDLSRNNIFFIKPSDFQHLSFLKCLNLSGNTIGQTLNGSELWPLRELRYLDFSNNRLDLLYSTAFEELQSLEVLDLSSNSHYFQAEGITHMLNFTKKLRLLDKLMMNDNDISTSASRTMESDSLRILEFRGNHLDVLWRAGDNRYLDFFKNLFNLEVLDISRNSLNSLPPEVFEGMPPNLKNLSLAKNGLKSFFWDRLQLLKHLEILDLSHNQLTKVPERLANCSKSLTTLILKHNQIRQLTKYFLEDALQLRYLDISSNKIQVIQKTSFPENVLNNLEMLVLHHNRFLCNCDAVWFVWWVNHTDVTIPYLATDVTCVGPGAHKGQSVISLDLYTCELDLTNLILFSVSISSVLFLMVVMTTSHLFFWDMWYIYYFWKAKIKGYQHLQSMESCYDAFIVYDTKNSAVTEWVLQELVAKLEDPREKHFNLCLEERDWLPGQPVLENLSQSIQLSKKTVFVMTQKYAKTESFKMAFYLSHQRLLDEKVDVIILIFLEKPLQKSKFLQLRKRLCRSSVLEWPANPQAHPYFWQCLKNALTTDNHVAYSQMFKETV
Experimental: (§1) FIGS. 4A-4E. […] Mouse BMDCs or human PBMCs were plated and incubated with serially diluted 1V209 nanoshells conjugates at different coating densities (high, medium, or low density conjugates, unconjugated TLR7 ligand 1V209, or silica nanoshells for 18 hours. Control cells were treated with 1 μM resiquimod or 0.5% DMSO as vehicle. IL-6 (A) and IL-12 (B) released in the culture supernatants of mouse BMDCs were measured using ELISA. (C) Cytotoxicity in BMDCs was measured by MTT assay. (D) IL-6 released in the culture supernatants of human PBMCs. (E) IL-6 released in the culture supernatants BMDCs isolated from TLR7 deficient mice.
(§2) The correlation between TLR7 ligands density and cytokines induction level was further investigated. To test this, mouse bone marrow-derived dendritic cells (BMDCs) or human peripheral blood mononuclear cells (PBMCs) were treated with unconjugated 1V209, SiO2 nanoshells, or 1V209-nanoshell conjugates with different coating densities (high, medium, or low coating densities). The levels of IL-6 and IL-12 release in the culture supernatant were measured. […] Different formula of conjugates were also tested their cytotoxicity in BMDCs. […] To determine whether the immune potency of 1V209-nanoshell conjugates was TLR7 specific, conjugates was performed in TLR7 deficient BMDCs. […] Thus, high coating of TLR7 agonists silica shells are denoted as 1v209-NS conjugates in the following description.

TLR7 [2] = biological target: T1, TLR7; experiment: IL-12 release in mouse BMDCs (ELISA); assay type: cell-based
Experimental: as §1
FIG. 23. In vitro cytokine induction of NS-TLR in murine cells. Mouse BMDCs (10^5 cells) were plated and incubated with serially diluted 100 nm NS-TLR at different coating densities for 18 hours. IL-12 released in the culture supernatants of mouse BMDCs incubated with unconjugated 1V209, high, medium, low coating density NS-TLR, and silica shells. IL-12 cytokine was measured via ELISA. All data are representative dose response curves in mean±SD with triplicate technical repeats. Data are representative of three independent experiments showing similar results. Data were analyzed by two-way ANOVA with Tukey's post hoc analysis.
as §2

NLRP3 inflammasome = experiment: IL-1β release in BMDCs (ELISA); assay type: cell-based, mouse; settings: supernatant
Experimental: FIGS. 5A-5C. TLR7 agonist-silica nanoshells conjugates generate high level of IL-1p in BMDCs. 75-2500 nM of TLR7 agonist-silcia shells conjugates were incubated with BMDCs for 24 hours at 37° C., 5% CO2. IL-1β level in supernatant was determined by ELISA. Mechanism figure reference: He, Y. et. al. (2016).
FIG. 24. In vitro IL-1β release of NS-TLR and mixture in BMDCs. 75-2500 nM of NS-TLR (high coating density) and mixture of silica nanoshells and 1V209 were incubated with wild type BMDCs for 18 hours. IL-1p cytokine was measured via ELISA. Dose response curves are in means SD. Data were analyzed by t test.
IL-1β secretion by dendritic cells is mandatory for T cell priming (Ghiringhelli et al., 2009). A two-pronged pathway has been proposed for NLRP3 inflammasome activation in macrophages and DCs. In this model, the first signal is triggered by microbial or endogenous molecules that generate NLRP3 and pro-IL-1p expression through activation of NF-κB; the second signal is triggered by ATP, pore-forming toxins, viral RNA and particulate matters such as silica nanoparticles. […] Resting DCs/macrophages have insufficient NLRP3 in the cells, and therefore, incubating with NLRP3 activator (silica nanoshells) results in no or minimal IL-1β.

CT26 tumors = experiment: CT26 tumor model, intratumoral monotherapy (tumor growth, CD3 IHC, IFN-γ RT-qPCR); assay type: in vivo, mouse; settings: single agent
Source text: FIGS. 13A-13F. Tumor growth regression in mice treated with NS-TLR7a. BALB/c mice were implanted with CT26 cells and treatment began when tumors reached 100 mm^3. Mice (n=5/group) were randomized and treated with vehicle (PBS), silica NS, unconjugated agonist (TLR7a), or NS-TLR7a every other day. Tumor tissues were collected on day 10 post treatment for analysis. A) Protocol of treatment. B) Average tumor growth curves per treatment. (C and D) Immunohistochemistry (IHC) images of CD3^+ cells infiltrating into the tumor environments for (C) unconjugated TLR7a or (D) TLR7a-NS conjugates locally injected tumor. (E and F) IFN-γ gene expression level (E) and (F) quantified CD3^+ T cells (F) in tumor samples for vehicle, NS, TLR7a, and TLR7a-NS conjugate treated groups (n=4-5/group). Representative IHC images were shown. […]
Animals and Tumor Model: Mouse colon cancer cell line CT26 (Cat. No. CRL-2638) was purchased from American Type Culture Collection (ATCC). […] Tumor volume was determined by caliper with the formula: volume (mm^3)=(width×width×length)/2. […]
To test the anti-tumor effects of TLR7 with or without conjugation onto silica nanoshells in vivo, silica NS, unconjugated TLR7a (TLR7 agonist), and NS-TLR7a were tested in a CT26 mouse tumor model. […] On day 8, tumors were harvested for immunohistochemistry (IHC) analysis and CD3^+ cells were assessed as T cell population in the tumor microenvironment.

[3] = BMDCs, 18 hours, ELISA, means ± SD

Emax, IL-6, normalized to unconjugated 1V209 (=1X) (TLR7 [1]): 1 ×
EC50 (TLR7 [1]; [3]): 1080 ± 101 nM
Emax, IL-6 (TLR7 [1]; [3]): 9.9 ± 1.0 ng/mL
Emax, IL-12, normalized to unconjugated 1V209 (=1X) (TLR7 [2]): 1 ×
EC50 (TLR7 [2]; [3]): 883 ± 193 nM
Emax, IL-12 (TLR7 [2]; [3]): 3.2 ± 2.3 ng/mL
SMILES: COCCOc1nc(N)c2[nH]c(=O)n(Cc3ccc(C(=O)O)cc3)c2n1 [1V209, 4-[6-Amino-2-(2-methoxyethoxy)-8-oxo-7H-purin-9(8H)-yl]methylbenzoic acid]
IL-1β level (NLRP3 inflammasome): very low levels or zero
tumor remission (CT26 tumors): did not result in tumor remission

Source: patent US20210038742A1, “CONJUGATION OF TLR7 AGONIST TO NANO-MATERIALS ENHANCES THE AGONISTIC ACTIVITY” (priority 2019, published 2021)
